The text below walks through data of PubChem BioAssay (NCI).

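Five concentrations, 48 hours, 96-well plates. Here, GI50 denotes the concentration required for 50% inhibition of growth. The concentration for full growth arrest is given as TGI.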

Assay in all cases: NCI tumour cell line growth inhibition, 48 h
The subject of experiment [1] is NCI-H226 lung.
Experiment [2] relates to SNB-19 CNS.
Experiment [3] has as its system NCI-H460 lung.
For experiment [4], the system named is MALME-3M melanoma.
The test system of experiment [5] is KM12 colon.
In experiment [6] the test system is HL-60(TB) leukemia.
Experiment [7] relates to SF-539 CNS.
Experiment [8] has as its system 786-0 renal.
Experiment [9] relates to SF-268 CNS.
Experiment [10] concerns UO-31 renal.

Regarding `CCC[CH2][Sn]([CH2]CCC)([O]C(=O)c1cc(OC)c(OC)cc1OC)[O][Sn]([CH2]CCC)([CH2]CCC)[O]C(=O)c1cc(OC)c(OC)cc1OC`, the GI50 in experiment [1] was 0.507 µM; in experiment [2], 0.27 µM; in [3], 1.3 µM; in [4], 0.229 µM; in experiment [5], 0.897 µM; in [6], 0.288 µM. Moreover, the GI50 in experiment [7] was 0.314 µM; in [8], 0.24 µM; in experiment [9], 0.27 µM; in experiment [10] it was 1.33 µM. Moreover, the TGI in experiment [1] was found to be 1.08 µM; in experiment [2] it was 1.08 µM; in experiment [3] it was 2.85 µM; in [4], 0.977 µM; in experiment [5] it was 2.3 µM; in [6], 1.31 µM. Also, the TGI was determined as 1.01 µM in experiment [7], 0.698 µM in [8], 0.972 µM in experiment [9] and 2.6 µM in [10].
Consider `COc1cc(/C=C/c2ccc(C)cc2)cc(OC)c1OC`, for which the TGI in experiment [1] was 11.4 µM; in experiment [2], 38.2 µM; in experiment [3] it was above 32.8 µM; in experiment [4], 10.5 µM; in experiment [5] it was 18.1 µM; in experiment [6], 21.9 µM. Further, the TGI in experiment [7] is 7.07 µM; in [8], 36.6 µM; in experiment [9], 11.2 µM; in experiment [10], 23.6 µM.
As for `O=C(/C=C(\O)C(=O)O)/C=C(\O)c1ccccc1`, the GI50 in experiment [1] is above 1 µM; in experiment [2], above 1 µM; in [3] it was above 1 µM; in experiment [4] it was above 100 µM; in experiment [6], above 1 µM; in [7] it was below 1 µM. Also, the GI50 in experiment [8], in [9] and in experiment [10] was above 1 µM throughout. The TGI in experiment [1], in experiment [2], in experiment [3], in experiment [4], in experiment [5] and in [6] was above 100 µM throughout. Also, the TGI in experiment [7] is above 1 µM; in experiment [8], above 100 µM; in experiment [9], above 100 µM; in experiment [10] it was above 1 µM.
Turning to `O=[N+]([O-])c1cccc(/C=N/NC2=CS(=O)(=O)C=C2)c1`, the TGI in experiment [1], in experiment [2], in [3], in experiment [4], in experiment [5] and in experiment [6] was above 100 µM throughout. Further, the TGI in experiment [7], in experiment [8], in [9] and in experiment [10] was above 100 µM throughout.
Take `O=C1CCc2c(sc3[nH]c(=S)n(-c4cc(C(F)(F)F)cc(C(F)(F)F)c4)c(=O)c23)C1`: the GI50 in [1] was 0.801 µM; in experiment [2], 0.384 µM; in [3], 0.353 µM; in experiment [4], 0.462 µM; in [5], 0.344 µM; in [6] it was 0.304 µM. Moreover, the GI50 in experiment [7] was 0.362 µM; in experiment [8] it was 0.602 µM; in experiment [9], 0.469 µM; in [10], 0.292 µM. The TGI is 7.04 µM in experiment [1]; above 37 µM in experiment [2]; 2.03 µM in experiment [3]; 2.77 µM in experiment [4]; 1.36 µM in experiment [5]; 1.21 µM in [6]. For the same compound, the TGI was 1.7 µM in experiment [7], 10.5 µM in [8], above 45.4 µM in experiment [9] and 1.11 µM in experiment [10].
On to `O=S(=O)(O)O`, for which the TGI in experiment [1] was determined as 2390 µM; in experiment [2] it was 2580 µM; in experiment [3], 1210 µM; in experiment [4], 2050 µM; in [5] it was 2150 µM; in experiment [6] it was 1300 µM. In addition, the TGI in [7] is 1840 µM; in experiment [8], 1490 µM; in experiment [9], 1980 µM; in experiment [10] it was 1770 µM.
In the case of `CO/N=C(\COc1ccc2c(=O)c3ccccc3oc2c1)c1ccccc1`, the GI50 in [1] was 40.8 µM; in experiment [2], 54.5 µM; in experiment [3] it was 38.9 µM; in [4], 19.1 µM; in experiment [5] it was 41.4 µM; in [6], above 100 µM. For the same compound, the GI50 was 19 µM in [7], 25.4 µM in experiment [8], 33.2 µM in experiment [9] and 24.2 µM in [10]. The TGI is above 100 µM in experiment [1]; above 100 µM in experiment [2]; above 100 µM in [3]; 48.3 µM in experiment [4]; above 100 µM in experiment [5]; above 100 µM in experiment [6]. Further, the TGI was 50.6 µM in experiment [7], 72.5 µM in [8], above 100 µM in experiment [9] and 63 µM in experiment [10].
With `COc1c(C(C)=O)c(OCCCCOc2c(C(C)=O)c(OC)c3ccoc3c2OC)c(OC)c2occc12`, the TGI in experiment [1] was above 100 µM; in experiment [2], above 100 µM; in experiment [3], above 100 µM; in experiment [4], 8.3 µM; in experiment [5], above 100 µM; in experiment [6], 4.02 µM. Also, the TGI in [7], in [8], in experiment [9] and in experiment [10] was above 100 µM throughout. The GI50 in experiment [2] is above 28.9 µM; in [3], above 24.3 µM; in experiment [4] it was 2.31 µM; in experiment [5], 3.11 µM; in [6], 1.85 µM; in [7] it was above 100 µM. Further, the GI50 in experiment [8] was above 100 µM; in [9], above 42.1 µM; in experiment [10] it was 2.34 µM.
Turning to `COc1ccccc1N=Nc1c(-c2ccccc2)nn(C(=O)CC(=O)Nc2cccc(C)c2)c1-c1ccccc1`, the TGI in experiment [1] was above 100 µM; in experiment [2] it was above 100 µM; in [3], above 100 µM; in [4] it was above 100 µM; in experiment [5], above 100 µM; in experiment [6], 38 µM. Besides, the TGI in experiment [7], in experiment [8], in experiment [9] and in [10] was above 100 µM throughout.
